ChEMBL document CHEMBL1201862, “PubChem BioAssay data set” (2004)
Activity calls are given as the source filed them.

Columns and labels:
[1] = target: Protein disulfide-isomerase (Homo sapiens, UniProt P07237); assay: PDI inhibitors, insulin aggregation turbidity, dose response, biochemical, absorbance, cherry-picked samples (AID 602350); assay type: functional
[2] = target: Sphingosine 1-phosphate receptor 1 (Homo sapiens, UniProt P21453); assay: Late-stage fluorescence-based dose-response cell-based counterscreen assay to identify agonists of the Sphingosine 1-Phosphate Receptor 4 (S1P4): Sphingosine 1-Phosphate Receptor 1 (S1P1) agonist assay Set 2.; assay type: functional
[3] = target: Sphingosine 1-phosphate receptor 5 (Homo sapiens, UniProt Q9H228); assay: S1P5 receptor agonists, human, late-stage follow-up, counter-screen for S1P4 agonist project, cell-based, fluorescence, set 2 (AID 504867); assay type: functional
[4] = target: Sphingosine 1-phosphate receptor 3 (Homo sapiens, UniProt Q99500); assay: Late-stage fluorescence-based dose-response cell-based counterscreen assay to identify agonists of the Sphingosine 1-Phosphate Receptor 4 (S1P4): Sphingosine 1-Phosphate Receptor 3 (S1P3) agonist assay Set 2.; assay type: functional
[5] = target: Sphingosine 1-phosphate receptor 2 (Homo sapiens, UniProt O95136); assay: S1P2 receptor agonists, human, late-stage follow-up, counter-screen for S1P4 agonist project, cell-based, fluorescence, set 2 (AID 504873); assay type: functional
[6] = target: ALK tyrosine kinase receptor (Homo sapiens, UniProt Q9UM73); assay type: functional;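 also: ALK tested as one member of a kinase panel screen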
[7] = target: Serine/threonine-protein kinase D3 (Homo sapiens, UniProt O94806); assay type: functional;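 also: determined within a kinase panel screen, with PRKCN as the panel member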
[8] = target: Tyrosine-protein kinase Lck (Homo sapiens, UniProt P06239); assay type: functional;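 also: lck was assayed as one member of a kinase panel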
[9] = target: Death-associated protein kinase 3 (Homo sapiens, UniProt O43293); assay type: functional;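 also: measured as one member of a kinome-wide profiling panel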
Activin receptor type-1 = Activin receptor type-1 (Homo sapiens, UniProt Q04771); assay: Navigating the Kinome. Panel member name: ACVR1; assay type: functional
[10] = target: Mitogen-activated protein kinase 8 (Homo sapiens, UniProt P45983); assay type: functional;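 also: value comes from one member of a kinome-wide kinase profiling panel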
[11] = target: Serine/threonine-protein kinase pim-1 (Homo sapiens, UniProt P11309); assay type: functional
[12] = target: Tyrosine-protein kinase BTK (Homo sapiens, UniProt Q06187); assay type: functional
[13] = target: Serine/threonine-protein kinase PAK 4 (Homo sapiens, UniProt O96013); assay type: functional;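 also: value obtained within a kinome profiling panel in which PAK4 was one of the panel members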
[14] = target: Fibroblast growth factor receptor 1 (Homo sapiens, UniProt P11362); assay type: functional
[15] = target: Casein kinase I isoform alpha (Homo sapiens, UniProt P48729); assay type: functional
[16] = target: Tyrosine-protein kinase JAK3 (Homo sapiens, UniProt P52333); assay type: functional
[17] = target: Serine/threonine-protein kinase N2 (Homo sapiens, UniProt Q16513); assay type: functional
[18] = target: Serine/threonine-protein kinase TAO1 (Homo sapiens, UniProt Q7L7X3); assay type: functional
[19] = target: Glycogen synthase kinase-3 alpha (Homo sapiens, UniProt P49840); assay type: functional;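 also: GSK3A result taken from a broad kinome-wide kinase panel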
[20] = target: Tyrosine-protein kinase ABL1 (Homo sapiens, UniProt P00519); assay type: functional
[21] = target: G protein-coupled receptor kinase 5 (Homo sapiens, UniProt P34947); assay: Navigating the Kinome. Panel member name: GPRK5; assay type: functional
Focal adhesion kinase 1 = Focal adhesion kinase 1 (Homo sapiens, UniProt Q05397); assay type: functional;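 also: measured as one member of a kinome panel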
[22] = target: Tyrosine-protein kinase Fyn (Homo sapiens, UniProt P06241); assay type: functional
[23] = target: Cyclin-dependent kinase 8 (Homo sapiens, UniProt P49336); assay: Navigating the Kinome. Panel member name: CDK8; assay type: functional
[24] = target: Mitogen-activated protein kinase kinase kinase kinase 4 (Homo sapiens, UniProt O95819); assay type: functional
[25] = target: Calcium/calmodulin-dependent protein kinase type II subunit alpha (Homo sapiens, UniProt Q9UQM7); assay: Navigating the Kinome. Panel member name: CAMK2A; assay type: functional
CHO-K1 = assay: (§1) Counterscreen for antagonists of the orexin 1 receptor (OX1R; HCRTR1): Homogeneous time resolved fluorescence (HTRF)-based cell-based dose response assay to identify antagonists of the parental CHO-K1 cell line. [Related pubchem assays (depositor defined):AID434989, AID435008, AID463079, AID485270, AID492963, AID492964, AID492965, AID493232, AID504699, AID504701]; assay type: functional; details: Cricetulus griseus
[26] = as §1, with “Fluorescence-based” for “Homogeneous time resolved fluorescence (HTRF)-based”, “cell-based high throughput” for “cell-based”, “CHO” for “CHO-K1”; assay type: functional
[27] = target: Neurotensin receptor type 1 (Homo sapiens, UniProt P30989); assay type: functional;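 also: Image-based confirmatory dose-response assay measuring agonist activity at NTR1; NTR1-expressing U2OS osteosarcoma cells imaged for beta-arrestin GFP spot formation; agonist potency where compounds increase beta-arrestin recruitment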
[28] = target: T1, Orexin/Hypocretin receptor type 1 (Homo sapiens, UniProt O43613); assay: Homogeneous Time Resolved Fluorescence (HTRF)-based cell-based high throughput dose response assay for antagonists of the orexin 1 receptor (OX1R; HCRTR1). [Related pubchem assays (depositor defined):AID434989, AID435008, AID463079, AID485270, AID492963, AID492964, AID492965, AID493232, AID504717, AID504718]; assay type: functional
[29] = target: T1, Orexin/Hypocretin receptor type 1; assay: Fluorescence-based cell-based high throughput dose response assay for antagonists of the orexin 1 receptor (OX1R; HCRTR1). [Related pubchem assays (depositor defined):AID434989, AID435008, AID463079, AID485270, AID492963, AID492964, AID492965, AID493232, AID504717, AID504718]; assay type: functional
[30] = target: T2, Microphthalmia-associated transcription factor (Homo sapiens, UniProt O75030); assay: TRPM1 promoter luciferase signal decrease, dose response, MITF inhibitor project, cell-based, SK-MEL-5, cherry-picked, set 3 (AID 493073); assay type: functional
T2 sequence (O75030 whole entry): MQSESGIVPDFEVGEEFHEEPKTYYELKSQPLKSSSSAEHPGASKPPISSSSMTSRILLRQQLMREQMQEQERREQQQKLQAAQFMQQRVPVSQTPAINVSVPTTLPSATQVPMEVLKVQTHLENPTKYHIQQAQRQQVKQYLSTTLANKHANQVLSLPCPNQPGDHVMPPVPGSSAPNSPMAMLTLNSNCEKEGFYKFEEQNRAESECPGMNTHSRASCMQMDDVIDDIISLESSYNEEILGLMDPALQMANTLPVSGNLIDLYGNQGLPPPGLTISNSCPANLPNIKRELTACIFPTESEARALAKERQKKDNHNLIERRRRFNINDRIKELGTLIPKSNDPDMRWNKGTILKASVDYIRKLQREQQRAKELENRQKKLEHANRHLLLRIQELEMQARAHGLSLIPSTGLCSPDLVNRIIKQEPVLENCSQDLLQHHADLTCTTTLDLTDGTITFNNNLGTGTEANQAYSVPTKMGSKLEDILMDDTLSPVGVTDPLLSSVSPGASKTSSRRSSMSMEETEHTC

Orexin receptor type 2 [31] = target: T3, Orexin receptor type 2 (Homo sapiens, UniProt O43614); assay: Counterscreen assay for antagonists of the orexin 1 receptor (OX1R; HCRTR1): Fluorescence-based cell-based dose response assay for antagonists of the orexin 2 receptor (OX2R; HCRTR2), run by assay provider.; assay type: functional
Orexin receptor type 2 [32] = target: T3, Orexin receptor type 2; assay: Counterscreen assay for antagonists of the orexin 1 receptor (OX1R; HCRTR1): Homogeneous Time Resolved Fluorescence (HTRF)-based cell-based dose response assay for antagonists of the orexin 2 receptor (OX2R; HCRTR2), run by assay provider.; assay type: functional
[33] = A549 cell cytotoxicity, dose response, cytotoxicity control, plate reader, cherry-pick, antagonist series (AID 743412); assay type: functional, cell-based
[34] = HepG2 cell cytotoxicity, dose response, cytotoxicity control, plate reader, cherry-pick, antagonist series (AID 743416); assay type: functional, cell-based
[35] = LGR2 antagonists, dose response, cell-based, HEK293, CRE-luciferase reporter, cherry pick, set 2 (AID 743343); assay type: functional;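 also: transfected cells were stimulated with diluted bursicon conditioned medium after compound addition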
[36] = MC4R antagonists, dose response, counter-screen for LGR2 antagonist project, cell-based, plate reader, cherry pick (AID 743444); assay type: functional;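 also: transfected HEK 293 cells stimulated with alpha-MSH peptide; potency of inhibitors of the alpha-MSH evoked signal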
[37] = HEK293 cell cytotoxicity, dose response, cytotoxicity control, plate reader, cherry-picked samples (AID 743446); assay type: functional, cell-based

T1 sequence (O43613 whole entry): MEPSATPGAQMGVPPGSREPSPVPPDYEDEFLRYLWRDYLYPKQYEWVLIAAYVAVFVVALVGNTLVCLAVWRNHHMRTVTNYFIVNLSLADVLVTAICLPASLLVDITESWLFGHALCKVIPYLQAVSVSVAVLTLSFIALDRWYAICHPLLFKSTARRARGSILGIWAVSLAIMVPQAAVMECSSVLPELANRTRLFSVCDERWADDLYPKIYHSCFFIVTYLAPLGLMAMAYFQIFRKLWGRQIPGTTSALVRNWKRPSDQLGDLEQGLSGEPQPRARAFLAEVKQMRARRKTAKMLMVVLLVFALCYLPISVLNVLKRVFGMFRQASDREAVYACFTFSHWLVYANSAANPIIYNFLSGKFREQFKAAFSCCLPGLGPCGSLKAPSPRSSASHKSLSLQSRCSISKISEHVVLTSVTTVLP
T3 sequence (O43614 whole entry): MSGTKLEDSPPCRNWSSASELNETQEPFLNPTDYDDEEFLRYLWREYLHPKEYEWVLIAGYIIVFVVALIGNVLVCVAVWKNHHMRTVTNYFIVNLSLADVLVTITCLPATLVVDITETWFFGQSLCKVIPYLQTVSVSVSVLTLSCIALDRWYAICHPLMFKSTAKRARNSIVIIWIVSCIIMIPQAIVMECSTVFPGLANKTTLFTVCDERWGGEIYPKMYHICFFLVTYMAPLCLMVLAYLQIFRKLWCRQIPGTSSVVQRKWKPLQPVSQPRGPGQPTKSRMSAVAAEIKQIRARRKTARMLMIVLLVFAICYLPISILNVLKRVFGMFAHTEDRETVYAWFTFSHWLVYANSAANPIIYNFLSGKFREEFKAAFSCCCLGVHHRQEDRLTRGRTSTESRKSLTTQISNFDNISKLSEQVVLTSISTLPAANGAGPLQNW
Serine/threonine-protein kinase N2, sequence (Q16513 whole entry): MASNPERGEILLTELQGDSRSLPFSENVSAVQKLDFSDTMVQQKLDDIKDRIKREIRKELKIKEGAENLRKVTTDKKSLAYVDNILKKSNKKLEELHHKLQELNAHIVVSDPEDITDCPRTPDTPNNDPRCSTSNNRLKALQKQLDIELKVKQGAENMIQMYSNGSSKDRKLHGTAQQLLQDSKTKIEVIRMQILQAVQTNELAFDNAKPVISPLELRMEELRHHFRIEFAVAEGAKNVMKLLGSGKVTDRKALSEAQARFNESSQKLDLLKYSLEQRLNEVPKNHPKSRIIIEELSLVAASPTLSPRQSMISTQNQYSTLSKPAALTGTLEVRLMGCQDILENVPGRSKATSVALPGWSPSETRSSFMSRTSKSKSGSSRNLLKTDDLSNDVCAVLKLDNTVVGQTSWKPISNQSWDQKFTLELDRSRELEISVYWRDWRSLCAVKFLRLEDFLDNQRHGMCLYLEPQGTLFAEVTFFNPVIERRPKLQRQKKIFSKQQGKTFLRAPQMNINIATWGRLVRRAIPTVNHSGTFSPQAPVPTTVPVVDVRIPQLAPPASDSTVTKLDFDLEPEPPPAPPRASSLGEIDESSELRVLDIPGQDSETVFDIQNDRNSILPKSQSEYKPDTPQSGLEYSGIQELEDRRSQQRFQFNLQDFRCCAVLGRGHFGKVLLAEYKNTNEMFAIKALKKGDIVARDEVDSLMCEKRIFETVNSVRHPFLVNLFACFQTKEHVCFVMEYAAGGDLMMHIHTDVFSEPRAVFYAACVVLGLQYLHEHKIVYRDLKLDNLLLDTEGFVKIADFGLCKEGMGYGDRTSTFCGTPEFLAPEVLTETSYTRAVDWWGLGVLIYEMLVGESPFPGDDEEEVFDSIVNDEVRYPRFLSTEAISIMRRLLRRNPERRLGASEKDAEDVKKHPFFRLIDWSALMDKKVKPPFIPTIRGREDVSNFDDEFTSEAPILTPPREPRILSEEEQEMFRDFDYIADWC
Protein disulfide-isomerase, sequence (P07237 whole entry): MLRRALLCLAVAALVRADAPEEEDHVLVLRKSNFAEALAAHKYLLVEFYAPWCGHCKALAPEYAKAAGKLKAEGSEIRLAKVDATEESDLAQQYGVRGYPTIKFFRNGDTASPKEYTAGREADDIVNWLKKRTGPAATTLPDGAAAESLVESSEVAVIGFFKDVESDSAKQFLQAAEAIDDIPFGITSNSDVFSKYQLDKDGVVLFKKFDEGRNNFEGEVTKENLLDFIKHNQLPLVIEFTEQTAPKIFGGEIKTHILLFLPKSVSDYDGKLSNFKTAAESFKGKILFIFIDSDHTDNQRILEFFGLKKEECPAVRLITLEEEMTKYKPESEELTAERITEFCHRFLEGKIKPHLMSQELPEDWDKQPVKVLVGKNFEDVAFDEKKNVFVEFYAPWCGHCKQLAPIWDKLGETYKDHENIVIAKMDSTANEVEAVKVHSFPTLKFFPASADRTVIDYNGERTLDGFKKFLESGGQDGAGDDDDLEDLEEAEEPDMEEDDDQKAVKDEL
Activin receptor type-1, sequence (Q04771 whole entry): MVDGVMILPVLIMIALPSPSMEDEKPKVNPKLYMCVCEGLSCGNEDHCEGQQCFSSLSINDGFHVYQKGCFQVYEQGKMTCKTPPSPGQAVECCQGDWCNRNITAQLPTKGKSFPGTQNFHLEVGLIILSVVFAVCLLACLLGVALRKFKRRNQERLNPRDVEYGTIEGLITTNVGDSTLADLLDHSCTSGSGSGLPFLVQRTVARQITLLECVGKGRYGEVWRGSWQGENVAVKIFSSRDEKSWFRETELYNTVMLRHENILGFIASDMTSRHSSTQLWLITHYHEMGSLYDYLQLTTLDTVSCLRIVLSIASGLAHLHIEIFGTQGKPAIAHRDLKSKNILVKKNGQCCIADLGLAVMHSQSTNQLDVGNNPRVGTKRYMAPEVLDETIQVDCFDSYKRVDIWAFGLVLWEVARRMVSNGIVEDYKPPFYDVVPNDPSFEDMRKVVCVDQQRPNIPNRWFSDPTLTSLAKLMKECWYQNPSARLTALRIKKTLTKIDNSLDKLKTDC
Tyrosine-protein kinase Fyn, sequence (P06241 whole entry): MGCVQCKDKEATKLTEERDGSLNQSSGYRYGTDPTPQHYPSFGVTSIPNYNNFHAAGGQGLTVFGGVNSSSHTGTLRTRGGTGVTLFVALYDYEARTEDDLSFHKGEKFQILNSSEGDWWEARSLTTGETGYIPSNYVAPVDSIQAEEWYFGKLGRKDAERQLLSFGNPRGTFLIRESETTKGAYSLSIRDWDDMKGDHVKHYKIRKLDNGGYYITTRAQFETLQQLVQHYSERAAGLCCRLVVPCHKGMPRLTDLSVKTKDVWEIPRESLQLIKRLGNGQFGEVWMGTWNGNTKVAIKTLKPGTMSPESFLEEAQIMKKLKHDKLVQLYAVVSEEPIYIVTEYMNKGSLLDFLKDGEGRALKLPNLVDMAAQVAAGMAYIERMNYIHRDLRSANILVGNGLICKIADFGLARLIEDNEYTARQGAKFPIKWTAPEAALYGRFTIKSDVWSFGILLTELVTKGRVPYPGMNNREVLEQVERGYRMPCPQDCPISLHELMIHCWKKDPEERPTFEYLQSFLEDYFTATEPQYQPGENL
Fibroblast growth factor receptor 1, sequence (P11362 whole entry, canonical isoform): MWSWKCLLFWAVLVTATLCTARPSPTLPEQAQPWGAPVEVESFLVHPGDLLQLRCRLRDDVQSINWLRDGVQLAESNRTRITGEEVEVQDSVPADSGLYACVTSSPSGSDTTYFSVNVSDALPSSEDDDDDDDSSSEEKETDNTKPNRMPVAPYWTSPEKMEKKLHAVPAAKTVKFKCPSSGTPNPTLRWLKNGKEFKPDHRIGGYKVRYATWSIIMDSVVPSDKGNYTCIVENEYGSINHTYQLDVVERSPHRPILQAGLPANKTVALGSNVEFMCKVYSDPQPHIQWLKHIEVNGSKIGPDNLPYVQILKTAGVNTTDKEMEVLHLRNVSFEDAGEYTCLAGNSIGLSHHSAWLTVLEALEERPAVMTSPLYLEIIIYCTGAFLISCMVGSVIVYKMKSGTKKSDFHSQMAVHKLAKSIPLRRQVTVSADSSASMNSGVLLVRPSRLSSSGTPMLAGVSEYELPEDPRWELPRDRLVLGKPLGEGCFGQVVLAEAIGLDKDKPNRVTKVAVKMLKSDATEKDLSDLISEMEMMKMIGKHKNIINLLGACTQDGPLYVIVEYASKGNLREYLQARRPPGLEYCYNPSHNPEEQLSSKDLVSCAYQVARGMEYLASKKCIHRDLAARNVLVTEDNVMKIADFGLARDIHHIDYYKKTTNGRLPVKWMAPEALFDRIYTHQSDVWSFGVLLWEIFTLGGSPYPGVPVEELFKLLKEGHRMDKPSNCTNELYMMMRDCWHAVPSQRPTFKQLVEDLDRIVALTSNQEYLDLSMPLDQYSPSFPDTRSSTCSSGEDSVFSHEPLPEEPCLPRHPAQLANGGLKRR
Serine/threonine-protein kinase PAK 4, sequence (O96013 whole entry): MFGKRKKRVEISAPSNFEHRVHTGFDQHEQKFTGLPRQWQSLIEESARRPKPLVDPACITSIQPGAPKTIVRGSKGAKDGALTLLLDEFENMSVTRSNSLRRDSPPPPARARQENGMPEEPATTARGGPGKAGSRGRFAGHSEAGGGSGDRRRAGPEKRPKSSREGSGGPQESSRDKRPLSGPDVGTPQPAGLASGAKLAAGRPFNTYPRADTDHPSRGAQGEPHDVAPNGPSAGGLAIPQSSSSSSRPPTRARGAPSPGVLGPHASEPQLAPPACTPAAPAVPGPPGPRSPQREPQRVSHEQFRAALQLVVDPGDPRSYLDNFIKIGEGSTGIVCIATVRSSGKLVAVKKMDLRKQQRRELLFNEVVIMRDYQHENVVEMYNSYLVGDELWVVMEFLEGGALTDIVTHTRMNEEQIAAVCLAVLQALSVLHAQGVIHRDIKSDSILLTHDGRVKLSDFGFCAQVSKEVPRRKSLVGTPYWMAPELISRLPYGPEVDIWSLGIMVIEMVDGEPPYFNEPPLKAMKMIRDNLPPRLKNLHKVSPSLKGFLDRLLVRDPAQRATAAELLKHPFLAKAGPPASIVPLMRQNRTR

O=C(CCC1CCCCC1)NCCN1C2=NC[C@H](Cc3ccc(O)cc3)N2C[C@H]1Cc1ccc(O)cc1
active: AC50 [1] 19.5 µM

C/N=C1/S/C(=C/c2cc(C)n(-c3ccc(Cl)cc3F)c2C)C(=O)N1C
inactive: EC50 [4] > 25 µM | EC50 [5] > 25 µM
active: EC50 [2] 3.01 µM | EC50 [3] 0.0336 µM

Cc1cc(=O)[nH]c2[nH]nc(-c3cccc(C(F)(F)F)c3)c12
inactive: Ki [6] > 6.31 µM | Ki [7] > 3.98 µM | Ki [8] > 6.31 µM | Ki [9] > 5.01 µM | Ki (Activin receptor type-1) > 3.98 µM | Ki [10] > 5.01 µM | Ki [11] > 6.31 µM | Ki [12] > 6.31 µM | Ki [13] > 5.01 µM | Ki [14] > 3.98 µM | Ki [15] > 3.98 µM | Ki [16] > 5.01 µM | Ki [17] > 5.01 µM | Ki [18] > 6.31 µM | Ki [19] > 3.98 µM | Ki [20] > 3.98 µM | Ki [21] > 3.98 µM | Ki (Focal adhesion kinase 1) > 6.31 µM | Ki [22] > 6.31 µM | Ki [23] > 3.98 µM | Ki [24] > 5.01 µM | Ki [25] > 7.94 µM

CN(C)S(=O)(=O)c1ccc(-c2csc(N/N=C/c3ccco3)n2)cc1
active: EC50 [27] 8.51 µM | IC50 [28] 7.29 µM | AC50 [30] 3.9 µM | AC50 [33] 40.7 µM | AC50 [34] 5.32 µM | AC50 [35] 7.23 µM | AC50 [36] 7.48 µM | AC50 [37] 11 µM
inactive: IC50 (CHO-K1) > 66.2 µM | IC50 [26] > 49.8 µM | IC50 [29] > 49.8 µM | IC50 (Orexin receptor type 2 [31]) > 88.8 µM | IC50 (Orexin receptor type 2 [32]) > 50 µM
